{"source": "patent US6576669B2", "about": "(Boehringer Ingelheim Pharma KG, priority 2001, dated 2003)", "test_system": "muc-5AC RNA", "experiment": "Biochemical study: Pseudomonas aeruginosa LPS aerosol-induced muc-5AC RNA in rat trachea (TaqMan real time PCR)", "assay_type": "in vivo", "conditions": "3 mg/kg p.o. 6 hours before LPS aerosol, trachea taken 20 hours after exposure, compared with vehicle pre-treatment", "method": "Two different rat strains, BDE and F344/NHsd, were tested because previous studies had shown strain-related differences in reactivity to lipopolysaccharides.\nAnimals Used: Adult male rats, strain BDE/Han, average weight about […] (range 340 g to 450 g), and adult male F344/NHsd rats, average weight about 250 g (range 240 g to 260g).\nAnimal Maintenance: The rats were housed in air-conditioned rooms, at 21° C.-25° C., relative humidity between 50% and 65%, day-night cycle 12 hours. They were fed before the start of the experiment and received tap water ad lib. 18 hours prior to drug administration, food was withdrawn, but drinking water remained available.\nThe compound of formula (I), namely carbamic acid, [[4-[[3-[[4-[1-(4-hydroxyphenyl)-1-methylethyl]phenoxy]methyl]phenyl]methoxy]phenyl]iminomethyl]ethyl ester, was synthesized as described in the International Patent Application WO 96/02497 and jet milled. For administration to animals, the compound of formula (I) was first dissolved in LABRASOL® and a 7% emulsion was then prepared of this LABRASOL® solution in distilled water (homogenized). […]\nExtraction and Quantitation of RNA: Total RNA was isolated with the RNeasy system (Qiagen, Germany). […] Quantitation of muc-5AC RNA was performed by the TAQMAN® real time PCR system using an ABI Prism 7700 Detector (Perkin Elmer Corporation, California USA). […]"}
{"smiles": "CCOC(=O)/N=C(\\N)c1ccc(OCc2cccc(COc3ccc(C(C)(C)c4ccc(O)cc4)cc3)c2)cc1", "note": "[compound (I)]", "values": [{"measurement": "increase in tracheal epithelial expression of the muc-5AC gene (relative to 18S ribosomal RNA) after Pseudomonas aeruginosa aerosol", "setting": "BDE strain rats, p=0.003", "result": "reduced this increase to less than half the value with only vehicle pre-treatment"}, {"measurement": "increase in tracheal epithelial expression of the muc-5AC gene (relative to 18S ribosomal RNA) after Pseudomonas aeruginosa aerosol", "setting": "F344 strain rats, p=0.010", "result": "reduced this increase to less than half the value with only vehicle pre-treatment"}]}
